Patent US6914045B2, “Glycopeptide antibiotics” (Wyeth Holdings Corporation, priority 2001, dated 2005)
≈ marks a conversion by molar mass, not a printed value. Numbered stars: 1 amine (or outer) side, 2 acyl side, 3 side chain; on linkers, the order of the positions; unused ones are H or OH. Square brackets hold non-standard residues; d marks the D form. Peptide text beside a SMILES is read from it. ξ: configuration not given here. X1 = N=C1NCC(C(O)C(N[*:1])C(=O)[*:2])N1C1OC(CO)C(O)C(O)C1O; ξEnduracididine(βξ-OH,4'ξ) = N=C1NCC(C(O)C(N)C(=O)O)N1; Tyr(3,5-Br2) = N[CH](Cc1cc(Br)c(O)c(Br)c1)C(=O)O; ξPhe(βξ-Me) = CC(c1ccccc1)C(N)C(=O)O

Experiments:
Experiment in all cases: in vitro antibacterial evaluation, MIC by broth dilution
Format in all cases: cell-based
[1] = system: Escherichia coli; settings: 18 hours at 35° C.
Outline: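 Broth dilution in Muller-Hinton II medium per NCCLS standard M7-A2, with an inoculum of 5×10^5 CFU/mL and antibiotic tested over 64-0.06 μg/mL. MIC was taken as the lowest concentration inhibiting visible growth.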

[2] = system: Staphylococcus sp.; settings: broth dilution, 18 hours at 35° C.; for MIC Staphylococcus aureus (ATCC 29213): strain ATCC 29213; for MIC Staphylococcus aureus (GC 1131): strain GC 1131; for MIC Staphylococcus aureus (GC 4541): strain GC 4541; for MIC Staphylococcus aureus (GC 4542): strain GC 4542; for MIC Staphylococcus aureus-SMITH (GC 4543): strain GC 4543; for MIC Staphylococcus aureus (GC 4544): strain GC 4544; for MIC Staphylococcus aureus (GC 4545): strain GC 4545; for MIC Staphylococcus haemolyticus (GC 4546): strain GC 4546; for MIC Coagulase Negative Staphylococcus (GC 4547): strain GC 4547; for MIC Coagulase Negative Staphylococcus (GC 4548): strain GC 4548; for MIC Coagulase Negative Staphylococcus (GC 4549): strain GC 4549; for MIC Coagulase Negative Staphylococcus (GC 4551): strain GC 4551
Outline: (§1)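 Inoculum 5×10^5 CFU/mL; concentrations 64 to 0.06 μg/mL; MIC defined as lowest inhibitory level. Conducted by broth dilution under NCCLS guidelines.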

[3] = system: Streptococcus sp.; settings: broth dilution, 18 hours at 35° C.
Outline: as §1

[4] = system: Enterococcus sp.; settings: broth dilution, 18 hours at 35° C.
Outline: as §1

CC(c1ccccc1)C1NC(=O)CNC(=O)C(CO)NC(=O)C(C(O)C2CNC(=N)N2C2OC(CO)C(O)C(O)C2O)NC(=O)C(C(O)C2CNC(=N)N2)NC(=O)C(Cc2cc(Br)c(O)c(Br)c2)NC1=O (stereo not drawn) [Example 3, Cyclo[glycyl-β-methylphenylalanyl-3,5-dibromotyrosyl-3-(2-iminoimidazolidin-4-yl)seryl-3-(3-hexopyranosyl-2-iminoimidazolidin-4-yl)serylseryl]] (cyclo(G[ξPhe(βξ-Me)][Tyr(3,5-Br2)][ξEnduracididine(βξ-OH,4'ξ)][X1]S); configuration not given here)
MIC Escherichia coli (ATCC 25922) ([1]; strain ATCC 25922, broth dilution): >128 µg/mL
MIC Escherichia coli (GC 4559) ([1]; strain GC 4559, broth dilution): >128 µg/mL
MIC Escherichia coli (GC 4560) ([1]; strain GC 4560, broth dilution): 64 µg/mL (≈ 56.7 µM)
MIC Staphylococcus aureus (ATCC 29213) [2]: >128 µg/mL
MIC Staphylococcus aureus (GC 1131) [2]: >128 µg/mL
MIC Staphylococcus aureus (GC 4541) [2]: >128 µg/mL
MIC Staphylococcus aureus (GC 4542) [2]: >128 µg/mL
MIC Staphylococcus aureus-SMITH (GC 4543) [2]: >128 µg/mL
MIC Staphylococcus aureus (GC 4544) [2]: >128 µg/mL
MIC Staphylococcus aureus (GC 4545) [2]: >128 µg/mL
MIC Staphylococcus haemolyticus (GC 4546) [2]: >128 µg/mL
MIC Coagulase Negative Staphylococcus (GC 4547) [2]: >128 µg/mL
MIC Coagulase Negative Staphylococcus (GC 4548) [2]: >128 µg/mL
MIC Coagulase Negative Staphylococcus (GC 4549) [2]: 128 µg/mL (≈ 113 µM)
MIC Coagulase Negative Staphylococcus (GC 4551) [2]: >128 µg/mL
MIC Coagulase Negative Staphylococcus (ID-3941) ([2]; strain ID-3941): 128 µg/mL (≈ 113 µM)
MIC Streptococcus agalactiae (GC 4564) ([3]; strain GC 4564): >128 µg/mL
MIC Streptococcus pneumoniae (GC 4565) ([3]; strain GC 4565): >128 µg/mL
MIC Streptococcus pyogenes (ID-3187) ([3]; strain ID-3187): >128 µg/mL
MIC Enterococcus faecalis (ATCC 29212) ([4]; strain ATCC 29212): >128 µg/mL
MIC Enterococcus faecalis (GC 2242) ([4]; strain GC 2242): >128 µg/mL
MIC Enterococcus faecium (GC 2243) ([4]; strain GC 2243): >128 µg/mL
MIC Enterococcus faecalis (GC 4552) ([4]; strain GC 4552): >128 µg/mL
MIC Enterococcus faecalis (GC 4553) ([4]; strain GC 4553): >128 µg/mL
MIC Enterococcus faecalis (GC 4554) ([4]; strain GC 4554): >128 µg/mL
MIC Enterococcus faecium (GC 4556) ([4]; strain GC 4556): >128 µg/mL
MIC Enterococcus faecium (GC 4557) ([4]; strain GC 4557): >128 µg/mL
MIC Enterococcus avium (GC 4558) ([4]; strain GC 4558): >128 µg/mL

CC(c1ccccc1)C1NC(=O)CNC(=O)C(CO)NC(=O)C(C(O)C2CNC(=N)N2C2OC(CO)C(O)C(O)C2O)NC(=O)C(C(O)C2CNC(=N)N2)NC(=O)C(Cc2ccc(OC3OC(CO)C(OC4OC5COC6(CC(C)(C)CC(C)(C)C6)OC5C(O)C4O)C(O)C3O)cc2)NC1=O (stereo not shown) [Example 207]
MIC Escherichia coli (ATCC 25922) [1]: 32 µg/mL (≈ 22.4 µM)
MIC Escherichia coli (GC 4559) [1]: 64 µg/mL (≈ 44.7 µM)
MIC Escherichia coli (GC 4560) [1]: 2 µg/mL (≈ 1.4 µM)
MIC Staphylococcus aureus (ATCC 29213) [2]: 1 µg/mL (≈ 0.699 µM)
MIC Staphylococcus aureus (GC 1131) [2]: 2 µg/mL (≈ 1.4 µM)
MIC Staphylococcus aureus (GC 3051) ([2]; strain GC 3051): 2 µg/mL (≈ 1.4 µM)
MIC Staphylococcus aureus (GC 3053) ([2]; strain GC 3053): 1 µg/mL (≈ 0.699 µM)
MIC Staphylococcus aureus (GC 4541) [2]: 1 µg/mL (≈ 0.699 µM)
MIC Staphylococcus aureus (GC 4542) [2]: 1 µg/mL (≈ 0.699 µM)
MIC Staphylococcus aureus-SMITH (GC 4543) [2]: 1 µg/mL (≈ 0.699 µM)
MIC Staphylococcus aureus (GC 4544) [2]: 1 µg/mL (≈ 0.699 µM)
MIC Staphylococcus aureus (GC 4545) [2]: 1 µg/mL (≈ 0.699 µM)
MIC Staphylococcus haemolyticus (GC 4546) [2]: 1 µg/mL (≈ 0.699 µM)
MIC Coagulase Negative Staphylococcus (GC 4547) [2]: 1 µg/mL (≈ 0.699 µM)
MIC Coagulase Negative Staphylococcus (GC 4548) [2]: 0.5 µg/mL (≈ 0.349 µM)
MIC Coagulase Negative Staphylococcus (GC 4549) [2]: 0.5 µg/mL (≈ 0.349 µM)
MIC Coagulase Negative Staphylococcus (GC 4551) [2]: 4 µg/mL (≈ 2.79 µM)
MIC Streptococcus agalactiae (GC 4564) [3]: <0.12 µg/mL
MIC Streptococcus pneumoniae (ATCC 6301) [3]: <0.12 µg/mL
MIC Streptococcus pneumoniae (GC 1894) [3]: <0.12 µg/mL
MIC Streptococcus pneumoniae (GC 4565) [3]: <0.12 µg/mL
MIC Streptococcus pyogenes (GC 4563) [3]: <0.12 µg/mL
MIC Streptococcus pneumoniae (ATCC 6301) ([3]; inoculum 5×10^5 CFU/mL, strain ATCC 6301): <0.12 µg/mL
MIC Streptococcus pneumoniae (GC 1894) ([3]; inoculum 5×10^5 CFU/mL, strain GC 1894): <0.12 µg/mL
MIC Streptococcus pyogenes (GC 4563) ([3]; inoculum 5×10^5 CFU/mL, strain GC 4563): <0.12 µg/mL
MIC Streptococcus agalactiae (GC 4564) ([3]; inoculum 5×10^5 CFU/mL, strain GC 4564): <0.12 µg/mL
MIC Streptococcus pneumoniae (GC 4565) ([3]; inoculum 5×10^5 CFU/mL, strain GC 4565): <0.12 µg/mL
MIC Enterococcus avium (GC 4558) [4]: 1 µg/mL (≈ 0.699 µM)
MIC Enterococcus faecalis (ATCC 29212) [4]: 4 µg/mL (≈ 2.79 µM)
MIC Enterococcus faecalis (GC 2242) [4]: 4 µg/mL (≈ 2.79 µM)
MIC Enterococcus faecalis (GC 2691) [4]: 2 µg/mL (≈ 1.4 µM)
MIC Enterococcus faecalis (GC 3059) [4]: 2 µg/mL (≈ 1.4 µM)
MIC Enterococcus faecalis (GC 4552) [4]: 4 µg/mL (≈ 2.79 µM)
MIC Enterococcus faecalis (GC 4553) [4]: 4 µg/mL (≈ 2.79 µM)
MIC Enterococcus faecalis (GC 4554) [4]: 4 µg/mL (≈ 2.79 µM)
MIC Enterococcus faecalis (GC 6189) [4]: 2 µg/mL (≈ 1.4 µM)
MIC Enterococcus faecium (GC 2243) [4]: 4 µg/mL (≈ 2.79 µM)
MIC Enterococcus faecium (GC 4556) [4]: 4 µg/mL (≈ 2.79 µM)
MIC Enterococcus faecium (GC 4557) [4]: 2 µg/mL (≈ 1.4 µM)
MIC Enterococcus faecalis (ATCC 29212) ([4]; inoculum 5×10^5 CFU/mL, strain ATCC 29212): 4 µg/mL (≈ 2.79 µM)
MIC Enterococcus faecalis (GC 2242) ([4]; inoculum 5×10^5 CFU/mL, strain GC 2242): 4 µg/mL (≈ 2.79 µM)
MIC Enterococcus faecium (GC 2243) ([4]; inoculum 5×10^5 CFU/mL, strain GC 2243): 4 µg/mL (≈ 2.79 µM)
MIC Enterococcus faecalis (GC 2691) ([4]; inoculum 5×10^5 CFU/mL, strain GC 2691): 2 µg/mL (≈ 1.4 µM)
MIC Enterococcus faecalis (GC 3059) ([4]; inoculum 5×10^5 CFU/mL, strain GC 3059): 2 µg/mL (≈ 1.4 µM)
MIC Enterococcus faecalis (GC 4552) ([4]; inoculum 5×10^5 CFU/mL, strain GC 4552): 4 µg/mL (≈ 2.79 µM)
MIC Enterococcus faecalis (GC 4553) ([4]; inoculum 5×10^5 CFU/mL, strain GC 4553): 4 µg/mL (≈ 2.79 µM)
MIC Enterococcus faecalis (GC 4554) ([4]; inoculum 5×10^5 CFU/mL, strain GC 4554): 4 µg/mL (≈ 2.79 µM)
MIC Enterococcus faecium (GC 4556) ([4]; inoculum 5×10^5 CFU/mL, strain GC 4556): 4 µg/mL (≈ 2.79 µM)
MIC Enterococcus faecium (GC 4557) ([4]; inoculum 5×10^5 CFU/mL, strain GC 4557): 2 µg/mL (≈ 1.4 µM)
MIC Enterococcus avium (GC 4558) ([4]; inoculum 5×10^5 CFU/mL, strain GC 4558): 1 µg/mL (≈ 0.699 µM)
MIC Enterococcus faecalis (GC 6189) ([4]; inoculum 5×10^5 CFU/mL, strain GC 6189): 2 µg/mL (≈ 1.4 µM)
